“Also recorded” adds a separate entry of the source.
Experiments:
[1] = test system: primary motor neurons (MNs); assay: Cell death / apoptosis in treated motor neurons; format: cell-based, mouse
Description: (§1) Primary motor neurons (MNs) were isolated from E12.5 mouse embryonic spinal cords dissociated in 0.1% trypsin (Worthington) at 37° C. for 12 minutes. MNs were purified using a 6% Optiprep (Sigma-Aldrich) density gradient and plated on glass coverslips coated with 0.5 g/L poly-ornithine (Sigma-Aldrich) and laminin (Thermo Fisher). Cells were grown at 37° C. and 5% CO2 in Neurobasal medium (Thermo Fisher) supplemented with 0.25% Glutamax, 2% B27, 2% horse serum, and 10 ng/ml BDNF, GDNF, and CNTF. MNs at 2 days in vitro (DIV) were transfected using 1.75 μl NeuroMag reagent (OZ Biosciences)+0.5 μg DNA. Complete growth medium was replaced with serum free neurobasal medium 1 hour prior and after transfection. The paramagnetic nanobeads used for transfection can linger inside the cell and in the extracellular space for several days and can be detected as DAPI positive dots. The V5-PFN1 plasmids were described in Wu, C. H. et al. Mutations in the profilin 1 gene cause familial amyotrophic lateral sclerosis. Nature 488, 499-503 (2012). The (G4C2)80 (SEQ ID NO:12). construct was described in Almeida, S. et al. Modeling key pathological features of frontotemporal dementia with C9ORF72 repeat expansion in iPSC-derived human neurons. Acta Neuropathol 126, 385-399 (2013). […]

[2] = test system: primary motor neurons (MNs); assay: Actin depolymerization assay: immunofluorescence of NCT factors in Latrunculin A treated motor neurons; format: cell-based, mouse; conditions: 0.1 mg/L Latrunculin A for 3 days
Description: Primary motor neurons (MNs) were isolated from E12.5 mouse embryonic spinal cords dissociated in 0.1% trypsin (Worthington) at 37° C. for 12 minutes. MNs were purified using a 6% Optiprep (Sigma-Aldrich) density gradient and plated on glass coverslips coated with 0.5 g/L poly-ornithine (Sigma-Aldrich) and laminin (Thermo Fisher). Cells were grown at 37° C. and 5% CO2 in Neurobasal medium (Thermo Fisher) supplemented with 0.25% Glutamax, 2% B27, 2% horse serum, and 10 ng/ml BDNF, GDNF, and CNTF. MNs at 2 days in vitro (DIV) were transfected using 1.75 μl NeuroMag reagent (OZ Biosciences)+0.5 μg DNA. Complete growth medium was replaced with serum free neurobasal medium 1 hour prior and after transfection. The paramagnetic nanobeads used for transfection can linger inside the cell and in the extracellular space for several days and can be detected as DAPI positive dots. The V5-PFN1 plasmids were described in Wu, C. H. et al. Mutations in the profilin 1 gene cause familial amyotrophic lateral sclerosis. Nature 488, 499-503 (2012). The (G4C2)80 (SEQ ID NO:12). construct was described in Almeida, S. et al. Modeling key pathological features of frontotemporal dementia with C9ORF72 repeat expansion in iPSC-derived human neurons. Acta Neuropathol 126, 385-399 (2013). For the GFP-PFN1 constructs, WT or mutant PFN1 was PCR amplified from the V5 constructs and cloned in the pEGFP-C1 backbone using BamHI sites. The FH1-FH2 domains of murine formin mDia1 (amino acid residues 553-1192) were PCR amplified using specific primers and cloned into the pEGFP-C1 plasmid using XhoI and BamHI restriction sites. GFP or GFP-mDia1 were co-transfected in a 1:2 ratio with PFN1 or C9ORF72 plasmids. Mock transfection controls were performed by subjecting the cells to all the steps of transfection without adding any plasmid DNA. For actin depolymerization assays, 2 DIV MNs were treated with 0.1 mg/L Latrunculin A (Cayman) for 3 days. For nuclear export inhibition, MNs were treated with 50 nM KPT-276 (Selleck) or equal volume of DMSO (Sigma Aldrich) 1 day after transfection. For formin induction, MNs were treated with 0.1 μM IMM01 (EMD Millipore) for 24 hr before fixation at 6 DIV.
Cells were fixed with 4% paraformaldehyde for 15 minutes. Fixed motor neurons were treated with hot 10 mM citrate buffer, pH 6 for 20 minutes before permeabilization with 0.2% Triton-X 100 for 5 minutes. […]
(§2) Immunofluorescence images were deconvolved using an adaptative blind deconvolution algorithm (Autoquant X3, Media Cybernetics) before analysis. To measure fluorescence intensities, the signals were thresholded and the resulting integrated densities were normalized on the area of the selected region (e.g. cell body, nucleus). […]

[3] = test system: primary motor neurons (MNs) expressing C71G PFN1; assay: Axon length and outgrowth analysis; format: cell-based, mouse
Description: Motor neurons were co-transfected as outlined above with green fluorescent protein (GFP) and V5-tagged PFN1 constructs in a 1:2 ratio. KPT-276 (50 nM) or equal volumes of DMSO were added to the culture medium 1 day after transfection and maintained throughout the experiment for a total of 3 days. Cells were fixed and stained to detect V5-PFN1 expression 4 days after transfection. Cells were imaged as individual focal planes using a 10× lens. GFP was used to identify transfected cells and highlight the whole cell structure. […]
Immunofluorescence images were deconvolved using an adaptative blind deconvolution algorithm (Autoquant X3, Media Cybernetics) before analysis. To measure fluorescence intensities, the signals were thresholded and the resulting integrated densities were normalized on the area of the selected region (e.g. cell body, nucleus). […] For NCT dynamics, the fluorescence intensity of S-mCherry was measured in the nucleus using ImageJ and normalized to the background for every time point. […] For the analysis of axonal fluorescence intensities, a 100 μm long region of the proximal axon was measured in all conditions. Axon lengths were measured using the ImageJ plugin NeuronJ 60. […] The rate of axon outgrowth was measured using the ImageJ plugin MTrackJ by tracking the movement of the growth cone in all fields. […]

[4] = test system: primary motor neurons (MNs) expressing C71G PFN1; assay: Immunofluorescence of nuclear pore/NCT factors and TDP-43 in motor neurons expressing mutant PFN1; format: cell-based, mouse; conditions: vs DMSO
Description: as §1, with “(2013). For the GFP-PFN1 constructs, WT or mutant PFN1 was PCR amplified from the V5 constructs and cloned in the pEGFP-C1 backbone using BamHI sites. The FH1-FH2 domains of murine formin mDia1 (amino acid residues 553-1192) were PCR amplified using specific primers and cloned into the pEGFP-C1 plasmid using XhoI and BamHI restriction sites. GFP or GFP-mDia1 were co-transfected in a 1:2 ratio with PFN1 or C9ORF72 plasmids.” for “(2013).”
as §2

[5] = test system: fibroblasts from ALS patients carrying C9ORF72 repeat expansions; assay: FISH for C9ORF72 RNA nuclear foci in patient fibroblasts; format: cell-based, human; conditions: IMM01 treatment
Description: Fibroblasts were obtained from skin biopsies of 3 ALS patients carrying mutations in C9ORF72 gene and of 3 healthy donors, sex- and age-matched with ALS cases, after informed consent and approval by the IRCCS Istituto Auxologico Italiano ethics committee. C9ORF72 mutation was validated in primary fibroblasts by repeat-primed PCR and repeat expansion size determined by Southern blot analysis (range 600-1500 units). Fibroblasts were grown in RPMI 1640 medium (EuroClone) containing 2 g/L glucose and supplemented with 10% FBS (Sigma Aldrich), 2 mM L-glutamine, 2.5 μg/ml amphotericin B (Sigma Aldrich), 100 units/ml penicillin and 100 μg/ml streptomycin (Gibco). 10,000 cell/well were seeded on glass coverslip in 24-well plates and after 24 hours, 50% of medium was replaced with fresh medium and IMM01 (Sigma Aldrich) at the final concentration of 0.1 μM. After a 24-hour treatment, cells were fixed with 4% paraformaldehyde for 20 minutes, permeabilized with 0.3% Triton X-100/1×PBS for 5 minutes and processed for immunofluorescence as described below.
Motor neurons were fixed in 4% RNase-free paraformaldehyde for 15 minutes and stored in 70% ethanol at 4° C. overnight. […]

[6] = test system: fibroblasts from ALS patients carrying C9ORF72 repeat expansions; assay: Immunofluorescence of RanGAP1 and FG-Nups in C9ORF72-ALS patient fibroblasts; format: cell-based, human; conditions: 0.1 μM IMM01 for 24 hours, vs DMSO
Description: Fibroblasts were obtained from skin biopsies of 3 ALS patients carrying mutations in C9ORF72 gene and of 3 healthy donors, sex- and age-matched with ALS cases, after informed consent and approval by the IRCCS Istituto Auxologico Italiano ethics committee. C9ORF72 mutation was validated in primary fibroblasts by repeat-primed PCR and repeat expansion size determined by Southern blot analysis (range 600-1500 units). Fibroblasts were grown in RPMI 1640 medium (EuroClone) containing 2 g/L glucose and supplemented with 10% FBS (Sigma Aldrich), 2 mM L-glutamine, 2.5 μg/ml amphotericin B (Sigma Aldrich), 100 units/ml penicillin and 100 μg/ml streptomycin (Gibco). […]
Immunofluorescence images were deconvolved using an adaptative blind deconvolution algorithm (Autoquant X3, Media Cybernetics) before analysis. To measure fluorescence intensities, the signals were thresholded and the resulting integrated densities were normalized on the area of the selected region (e.g. cell body, nucleus). […] For NCT dynamics, the fluorescence intensity of S-mCherry was measured in the nucleus using ImageJ and normalized to the background for every time point. […] For the analysis of axonal fluorescence intensities, a 100 μm long region of the proximal axon was measured in all conditions. Axon lengths were measured using the ImageJ plugin NeuronJ 60. […]

[7] = test system: Neurofilament L mRNA in MNs expressing C71G PFN1; assay: Fluorescence in situ hybridization of Neurofilament L mRNA; format: cell-based, mouse; conditions: IMM01 vs DMSO
Description: as §1, with “C.” for “C. H. et al. Mutations in the profilin 1 gene cause familial amyotrophic lateral sclerosis. Nature 488, 499-503 (2012). The (G4C2)80 (SEQ ID NO:12). construct was described in Almeida, S. et al. Modeling key pathological features of frontotemporal dementia with C9ORF72 repeat expansion in iPSC-derived human neurons. Acta Neuropathol 126, 385-399 (2013).”
Immunofluorescence images were deconvolved using an adaptative blind deconvolution algorithm (Autoquant X3, Media Cybernetics) before analysis. To measure fluorescence intensities, the signals were thresholded and the resulting integrated densities were normalized on the area of the selected region (e.g. cell body, nucleus). […] For NCT dynamics, the fluorescence intensity of S-mCherry was measured in the nucleus using ImageJ and normalized to the background for every time point. […]

Q: With `C/C1=C/C(=O)O[C@@H]2C[C@@H](CC[C@H](C)/C=C\C=C\CC1)O[C@@](O)([C@@H]1CSC(=O)N1)C2` [Latrunculin A] as the compound, how does the “cell death or apoptosis” value ([1]; MNs, Latrunculin A treatment conditions (0.1 mg/L, 3 days), data not shown) read?
A: No increased cell death or apoptosis was observed

Q: And the “localization of FG-Nups” value [2]?
A: severe mislocalization

Q: What about the “localization of Ran” value [2] of the same compound?
A: severe mislocalization; also recorded: disrupted

Q: What about the “localization of RanGAP1” value [2] of the same compound?
A: severe mislocalization; also recorded: disrupted

Q: What about the nuclear morphology [2] of the same compound?
A: smaller nuclei with condensed DNA

Q: How did the axon length ([3]; 50 nM KPT-276 for 3 days, vs DMSO) turn out when `O=C(/C=C\n1cnc(-c2cc(C(F)(F)F)cc(C(F)(F)F)c2)n1)N1CC(F)(F)C1` [KPT-276] was run?
A: fully rescued the defect

Q: What about the “rate of axon growth (outgrowth) by live cell imaging” value ([3]; 50 nM KPT-276 ~18-24 hours, imaged over 1 hour) of the same compound?
A: full rescue of the outgrowth defects

Q: And the “C:N ratio of TDP-43 (TDP-43 cytoplasmic mislocalization)” value ([4]; 50 nM KPT-276 6 hours prior to fixation)?
A: fully rescue TDP-43 cytoplasmic mislocalization; also recorded: rescues C:N ratio of TDP-43

Q: How did the “propensity of the cell to form C9ORF72-positive nuclear foci” value [5] turn out when `CC(C)(C)NC(=S)N/N=C/c1ccc(O)cc1O` [IMM01] was run?
A: without changes to the propensity of the cell to form C9ORF72-positive nuclear foci

Q: And the “localization of FG-Nups” value [6]?
A: rescued defects in the localization; also recorded: significantly rescued the defects

Q: What about the “localization of RanGAP1” value [6] of the same compound?
A: rescued defects in the localization; also recorded: significantly rescued the defects

Q: What about the “axonal localization of Nef1 mRNA” value [7] of the same compound?
A: rescue the defects in the axonal localization; also recorded: rescue of mislocalization

Q: And the induction of apoptosis ([1]; primary MNs, 0.1 μM IMM01 for 24 hours)?
A: No induction of apoptosis was detected

Q: What about the “FG-Nups localization at the nuclear envelope” value ([4]; 0.1 μM IMM01 for 24 hours) of the same compound?
A: rescue of FG-Nups defective localization at the nuclear envelope; also recorded: rescue of mislocalization

Q: What about the “Ran gradient (Ran localization)” value ([4]; 0.1 μM IMM01 for 24 hours) of the same compound?
A: rescue of mislocalization

Source: patent US20220280603A1, “TARGETING OF THE CYTOSKELETON AS A THERAPEUTIC APPROACH FOR NEURODEGENERATIVE DISEASE” (University of Massachusetts, priority 2019, published 2022)
